Results as given in patent US5254584A, “N-acetonylbenzamides and their use as fungicides” (Rohm and Haas Company, priority 1992, dated 1993).
≈ marks a conversion by molar mass, not a printed value.

Key:
Botrytis cinerea [1] = assay: Fungitoxicity assay against Botrytis cinerea (in vitro, colony diameter); type: cell-based; settings: 48 hours at 25° C., read-out: Botrytis EC50
Protocol: The compounds of Examples 1-20 were tested in vitro for fungicidal activity and phytotoxicity. A. The compounds were tested in vitro for fungicidal activity against Pythium ultimum, Botrytis cinerea and Venturia inaequalis. Fungitoxicity assay against Botrytis cinerea: […] The mixtures were poured immediately into 9 centimeter (cm) diameter petri dishes. Two replicate plates were used for each treatment. Each plate was inoculated with a 7 mm diameter plug taken from the growing edge of a 5 day old culture of B. cinerea on potato dextrose agar. […] Results of the testing for fungicidal activity against the above named fungi are set forth below in Table 3 as Pythium EC50 (ppm), Botrytis EC50 (ppm) and Venturia MIC (ppm), respectively.

Botrytis cinerea [2] = assay: microbe, parasite or virus in culture; type: cell-based; settings: 72 h, 3 days at room temperature, read-out: BOC percent inhibition of fungal growth
[3] = tested on: Pseudocercosporella herpotrichoides; assay: microbe, parasite or virus in culture; type: cell-based; settings: Oculimacula yallundae, 72 h, 3 days at room temperature, read-out: PSH percent inhibition of fungal growth
Pythium ultimum = assay: microbe, parasite or virus in culture; type: cell-based; settings: Globisporangium ultimum, 72 h, 3 days at room temperature, read-out: PYU percent inhibition of fungal growth
Phytophthora infestans = type: in vivo; settings: 300 g/Ha; applied two days after inoculation (curative); tomato
[4] = tested on: Pseudoperonospora cubensis; assay: Cucumber Downy Mildew (CDM); settings: in vivo
Piricularia oryzae = type: in vivo; settings: 300 g/Ha; seven to eight days after inoculation; Nato rice
Cercospora arachidicola = assay: Peanut Cercospora (PC); settings: in vivo
Plasmopara viticola = assay: Downy Mildew of Grapes (GDM); type: in vivo; settings: 300 g/Ha; 7-8 days; grape
cucumber plants = assay: In vivo phytotoxic activity, foliar spray, cucumber; set-up: key: +: indicating presence of a plant growth regulatory effect as compared to a control to which a solvent mixture (acetone/water/methanol) lacking the test compound was applied; 0: A zero indicates no apparent effect; settings: foliar spray 2200 g/Ha, seven days after application
Protocol: (§1) The compounds of Examples 1 and 12 were tested in vivo for phytotoxic activity by applying the compounds to the foliage of cucumber, tomato, bean, lettuce and strawberry plants as a spray at a rate of 2200 g/Ha. The plants were evaluated seven days after spray application of the compounds.
(§2) Phototoxicity scores are set forth below in Table 6. The phytotoxicity scores use a symbol, "+", indicating presence of a plant growth regulatory effect as compared to a control to which a solvent mixture (acetone/water/methanol) lacking the test compound was applied. A zero indicates no apparent effect. Each score is a composite representing the mode value for three replicate plants.

strawberry plants = assay: In vivo phytotoxic activity, foliar spray, strawberry; set-up: key: +: indicating presence of a plant growth regulatory effect as compared to a control to which a solvent mixture (acetone/water/methanol) lacking the test compound was applied; 0: A zero indicates no apparent effect; settings: foliar spray 2200 g/Ha, seven days after application
Protocol: as §1, §2

Q: What does the source list for CCC(C)(NC(=O)c1cc(C)cc(C=NOC)c1)C(=O)CCl (centres unmarked) [Example 12, N-[3'-(1'-chloro-3'-methyl-2'-oxopentan)]-3-methoxyiminomethyl-5-methylbenzamide]?
A: IC50 (Botrytis cinerea [1]): 0.28 µg/mL (≈ 0.862 µM); inhibition at 25 ppm (Botrytis cinerea [2]): 100%; inhibition at 25 ppm [3]: 100%; inhibition at 25 ppm (Pythium ultimum): 100%; TLC percent disease control (Phytophthora infestans): 99%; CDM percent disease control [4]: 99%; RB percent disease control (Piricularia oryzae): 75%; PC percent disease control (Cercospora arachidicola): 80%; GDM percent disease control (Plasmopara viticola): 100%; phytotoxicity score, Cucumber (cucumber plants): 0; phytotoxicity score, Strawberry (strawberry plants): 0
